Test results published in the supplement of paper PMC10307832.

How the values were obtained:
Assay in all cases: relative viability (nuclei count vs DMSO), 5 days (fraction); higher = more cells survive
NCI-H3122 = tested on: NCI-H3122
Outline: (§1)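 Relative viability divides the nuclei count in treated wells by that in vehicle wells. Lung cancer cell lines were seeded in 1536-well plates, dosed by pin tool the next day, and fixed and stained after 5 days in one step with final 0.05% Triton X-100, 1% formaldehyde and 1 ug/ml Hoechst. Dosing was a single drug or a fixed anchor-drug dose plus five library-drug doses (not always all listed) in √10 steps, and values are medians of duplicate plates imaged at 4×.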

NCI-H322M = tested on: NCI-H322M
Outline: as §1

NCI-H358 = tested on: NCI-H358
Outline: as §1

NCI-H460 = tested on: NCI-H460
Outline: as §1

NCI-H520 = tested on: NCI-H520
Outline: as §1

NCI-H596 = tested on: NCI-H596
Outline: as §1

NCI-H650 = tested on: NCI-H650
Outline: as §1

NCI-H727 = tested on: NCI-H727
Outline: as §1

NCI-H838 = tested on: NCI-H838
Outline: as §1

SW 1573 = tested on: SW 1573
Outline: as §1

SW 900 = tested on: SW 900
Outline: as §1

COCC1(CO)C(=O)C2CCN1CC2 (centres undefined) [PRIMA-1MET] + Cc1cc(Nc2cc(N3CCN(C)CC3)nc(Sc3ccc(NC(=O)C4CC4)cc3)n2)n[nH]1 [Tozasertib] (partner 0.1 µM)
relative viability (NCI-H3122; first compound 0.6325 µM): 0.361 | relative viability (NCI-H3122; first compound 6.325 µM): 0.388 | relative viability (NCI-H3122; first compound 20 µM): 0.337 | relative viability (NCI-H322M; first compound 0.2 µM): 0.515 | relative viability (NCI-H322M; first compound 0.6325 µM): 0.523 | relative viability (NCI-H322M; first compound 6.325 µM): 0.504 | relative viability (NCI-H322M; first compound 20 µM): 0.286 | relative viability (NCI-H358; first compound 0.2 µM): 0.105 | relative viability (NCI-H358; first compound 2 µM): 0.098 | relative viability (NCI-H358; first compound 6.325 µM): 0.117 | relative viability (NCI-H358; first compound 20 µM): 0.0866 | relative viability (NCI-H460; first compound 0.2 µM): 0.443 | relative viability (NCI-H460; first compound 0.6325 µM): 0.312 | relative viability (NCI-H460; first compound 2 µM): 0.311 | relative viability (NCI-H460; first compound 6.325 µM): 0.5 | relative viability (NCI-H460; first compound 20 µM): 0.0183 | relative viability (NCI-H520; first compound 0.2 µM): 0.402 | relative viability (NCI-H520; first compound 0.6325 µM): 0.416 | relative viability (NCI-H520; first compound 6.325 µM): 0.384 | relative viability (NCI-H520; first compound 20 µM): 0.236 | relative viability (NCI-H596; first compound 0.2 µM): 0.96 | relative viability (NCI-H596; first compound 0.6325 µM): 0.803 | relative viability (NCI-H596; first compound 2 µM): 0.869 | relative viability (NCI-H596; first compound 6.325 µM): 1.02 | relative viability (NCI-H596; first compound 20 µM): 0.102 | relative viability (NCI-H650; first compound 0.2 µM): 0.91 | relative viability (NCI-H650; first compound 2 µM): 0.639 | relative viability (NCI-H650; first compound 6.325 µM): 0.749 | relative viability (NCI-H650; first compound 20 µM): 0.306 | relative viability (NCI-H727; first compound 0.2 µM): 0.549 | relative viability (NCI-H727; first compound 0.6325 µM): 0.543 | relative viability (NCI-H727; first compound 2 µM): 0.643 | relative viability (NCI-H727; first compound 6.325 µM): 0.487 | relative viability (NCI-H727; first compound 20 µM): 0.293 | relative viability (NCI-H838; first compound 0.2 µM): 0.291 | relative viability (NCI-H838; first compound 0.6325 µM): 0.286 | relative viability (NCI-H838; first compound 2 µM): 0.245 | relative viability (NCI-H838; first compound 6.325 µM): 0.293 | relative viability (NCI-H838; first compound 20 µM): 0.194 | relative viability (SW 1573; first compound 0.2 µM): 0.189 | relative viability (SW 1573; first compound 0.6325 µM): 0.0874 | relative viability (SW 1573; first compound 2 µM): 0.191 | relative viability (SW 1573; first compound 6.325 µM): 0.0585 | relative viability (SW 1573; first compound 20 µM): 0.0263 | relative viability (SW 900; first compound 0.2 µM): 0.784 | relative viability (SW 900; first compound 0.6325 µM): 0.465 | relative viability (SW 900; first compound 2 µM): 0.524 | relative viability (SW 900; first compound 6.325 µM): 0.388 | relative viability (SW 900; first compound 20 µM): 0.084
